Test system: mature atrophic post-Acne facial scarring
Assay: randomized, triple-blind study in mature atrophic post-Acne facial scarring (Example 7)
Type: in vivo, human
Parameters: transient reduction in vision (adverse event, one patient): unit not given here
Description: A randomized, triple-blind study was conducted on 35 patients in two sites in India (Amritsar and Faridkot). Ethnic skin patients (Fitzpatrick 4-5) with mature atrophic post-Acne facial scarring (scar age >2 years) were randomly assigned to one of four study arms: topical Topiramate 5.0% (n=10), topical Topiramate 2.5% (n=9), oral Topiramate 25 mg (n=8) and topical placebo (n=7). Patients applied the topical formulation once a day on both cheeks for 3 months. Clinical assessment was performed at 6 weeks and 3 months using a visual analog scale (VAS) by the patients and 3 independent observers (2 plastic surgeons and 1 general surgeon) who scored side-by-side cheek photos (before and after treatment).
Thirty five patients completed the study, and a total of 57 cheeks (topical Topiramate 5%—n=18; topical Topiramate 2.5%—n=19; oral Topiramate—n=13; topical Placebo—n=7) were evaluated and scored.

With `CC1(C)O[C@@H]2[C@@H](CO[C@@]3(COS(N)(=O)=O)OC(C)(C)O[C@@H]23)O1` [Topiramate] the “advantage of the study group over the control (topical placebo)” value (day 42) was 95%, the “improvement (visual analog scale, patients and 3 independent observers)” value (day 42, once a day) was 13.91% and the “advantage of the study group over the control (topical placebo)” value (day 90) was 102%. The “improvement (visual analog scale, patients and 3 independent observers)” value (day 90, once a day) was 34.69% and the “transient reduction in vision (adverse event, one patient)” value (from 20/20, within 2 days from starting 25 mg oral, returned to 20/20 within 7 days from stopping) was −5.00.

— patent US20140315991A1, “COMPOSITION FOR TREATMENT OF EPITHELIAL TISSUE” (NOVODERMIX INTERNATIONAL LIMITED, priority 2008, published 2014)
